# Experimental data reported in patent publication US6399353B1, “Papillomavirus: biosynthetic process and assays” (priority 1992, dated 2002).
# What was measured:
# [1] = test system: HPV 31b; assay: Virion production in CIN-612 raft cultures (electron microscopy, isopycnic gradient, Southern blot); assay type: cell-based, Human papillomavirus
# Description: (§1) Raft cultures were grown for 16 days then harvested, fixed in paraformaldehyde, embedded in paraffin and sectioned for immunohistostaining.
# Raft tissue cross-sections were fixed with glutaraldehyde and stained with uranyl acetate. […] Virions were commonly observed in bilobulated koilocytic and dyskeratotic nuclei in which the nuclear chromatin had condensed at the nuclear envelope. At higher magnification the particles could be seen superimposed on heterochromatin, as is often seen in vivo. These particles are not seen in nuclei of untreated CIN-612 raft cultures. Virions approximately 54 nm in diameter were also prevalent in the stratum corneum of raft cultures. […] Similar results have been obtained with material from five separate experiments with different passages of CIN-612 cells.
# Because infectious assays have not yet been developed for HPV, we sought to determine if the structures we observed in nuclei of CIN-612 cells were indeed virions. […]
# Eight TPA-treated raft cultures were harvested and virions were isolated following a series of low speed and high speed centrifugations. […] Fractions from the bottom of the gradient through fractions determined positive for HPV 31b DNA by dot blot hybridization were dialyzed and examined by Southern blot hybridization. […]
# [2] = test system: CIN-612 cells; assay: Immunostaining for keratin 10 and filaggrin in CIN-612 raft cultures; assay type: cell-based
# [3] = test system: L1 major capsid protein in CIN-612 rafts; assay: Immunostaining for L1 major capsid protein in CIN-612 raft cross-sections; assay type: cell-based; conditions: CIN-612 raft cultures, TPA treated; untreated showed no specific nuclear staining
# Description: as §1
# In vivo expression of viral late genes is only detected in the highly differentiated suprabasal cells of infected tissue (Pfister, et al., 1987). Using antiserum to the HPV 16 L1 major capsid protein (Bedell, et al., 1991), which cross reacts with the L1 major capsid protein of various HPV types (Bedell, et al., 1991), the production of the L1 major capsid protein in the CIN-612 rafts grown with or without TPA treatment was determined. CIN-612 raft cross-sections were examined by immunostaining with the VECTASTAIN Elite ABC Kit (Vector Laboratories. Inc., Burlingame, Calif.) after treatment with antiserum against the major late capsid protein, L1.
# [4] = CIN-612 rafts, 16 nM TPA, 16 to 24 h every four days, grown 16 days, immunostaining
smiles,measurement,setting,value
"CCCCCCCCCCCCCC(=O)O[C@@H]1[C@@H](C)[C@@]2(O)[C@@H](C=C(CO)C[C@]3(O)C(=O)C(C)=C[C@@H]23)[C@@H]2C(C)(C)[C@]12OC(C)=O [TPA, 12-O-tetradecanoylphorbol-13-acetate]",production of virions,"[1]; TPA added to media of organotypic (raft) cultures, electron microscopy",induced production of virions
same,yield of viral particles,"[1]; eight TPA-treated raft cultures, CsCl gradient fractions (lanes 7 and 8), estimated from copy number standards",at least 40 million
same,induction of differentiation,"[2]; CIN-612 raft cultures, 16 nM TPA in medium, 16 to 24 h every four days",Reproducible induction of differentiation
same,filaggrin expression,[2]; [4],strong expression of filaggrin was observed throughout the stratum granulosum and into the stratum corneum
same,keratin 10 expression,[2]; [4],"expressed throughout most of the suprabasal layers, including the stratum corneum"
same,expression of physiological markers of keratinocyte differentiation,[2]; TPA added to media of organotypic (raft) cultures,increased expression
same,nuclear staining with L1 antiserum (major late capsid protein),[3],specific nuclear staining was seen in the stratum granulosum and in the stratum corneum
